Like-named read-outs stand apart in the source and are kept apart here. Where only a bound is given, the exact number is not on record here.

The target in one series is T1, human PF4 (Homo sapiens, UniProt P02776).
T1 construct: PF4 is a 70 amino acid, lysine-rich 7.8 kDa platelet-specific protein; made in house; host or cells: Escherichia coli BL21DE3 pLysS (pT7-7) and/or Drosophila S2 cells
T1 sequence (P02776 32-101): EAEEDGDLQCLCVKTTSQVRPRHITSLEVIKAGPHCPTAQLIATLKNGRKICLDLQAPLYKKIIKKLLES
Put plainly: Inhibition of PF4 tetramer formation (BS3 cross-linking, SDS-PAGE). The settings on record: for IC50: read-out: IC50 of PF4 tetramer formation inhibition. Format: biochemical. The method in brief: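 Recombinant human wild-type PF4 (E. coli-expressed, heparin-purified), 10 μg/ml in PBS, incubated with compound 15 min at 37° C or 60 min at room temperature, then cross-linked with 0.2 mM BS3 for 30 min at room temperature. Reducing 12% SDS-PAGE; bands quantified as % tetramer, trimer, dimer, monomer versus compound-free control.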

A further series deals with Heparin-PF4-KKO mice. Briefly: In vivo activity, heparin-PF4-KKO induced thrombocytopenia (mouse model of HIT). As to the method: Heparin-PF4-KKO mice that were induced to thrombocytopenia were administered the compound of Example 1. The dosing regimen was guided by the PK results in Table 4 (see Example A6). At T0hr, 5 mg/kg of Compound 1 was given by retro-orbital injection. 1000 units/kg heparin was injected subcutaneously at T3hr. At T4hr, 20 mg/kg of KKO antibody was administered by retro-orbital injection. Also at T4hr, an additional 5 mg/kg of the compound was injected intraperitoneally. Platelet count was measured at T8hr.

The nature of series [1]: Experimentally determined log D. Format: physicochemical.
Series [2] in a line: Experimentally determined pKa. Format: physicochemical.
The nature of series [3]: Pharmacokinetics after IV bolus in CD-1 mice. Format: in vivo. As to the method: PK parameters were measured and reported in Table 4 as follows: C0 represents concentration in ng/ml at t=0 min; AUC0-last represents area under the curve for t=0 min to last time point; AUC0-∞ represents area under the curve for t=0 min to infinity.
The target of another series is P450 2D6 (Homo sapiens, UniProt P10635). Put plainly: P450 inhibition 2D6. Format: in vitro ADME. As to the method: (§1) Certain exemplified compounds were examined for ADMET (absorption, distribution, metabolism, excretion and toxicity) profiling using conventional assays with the results shown in the Tables 3A-3C below.
Sequence of P450 2D6 (P10635 whole entry): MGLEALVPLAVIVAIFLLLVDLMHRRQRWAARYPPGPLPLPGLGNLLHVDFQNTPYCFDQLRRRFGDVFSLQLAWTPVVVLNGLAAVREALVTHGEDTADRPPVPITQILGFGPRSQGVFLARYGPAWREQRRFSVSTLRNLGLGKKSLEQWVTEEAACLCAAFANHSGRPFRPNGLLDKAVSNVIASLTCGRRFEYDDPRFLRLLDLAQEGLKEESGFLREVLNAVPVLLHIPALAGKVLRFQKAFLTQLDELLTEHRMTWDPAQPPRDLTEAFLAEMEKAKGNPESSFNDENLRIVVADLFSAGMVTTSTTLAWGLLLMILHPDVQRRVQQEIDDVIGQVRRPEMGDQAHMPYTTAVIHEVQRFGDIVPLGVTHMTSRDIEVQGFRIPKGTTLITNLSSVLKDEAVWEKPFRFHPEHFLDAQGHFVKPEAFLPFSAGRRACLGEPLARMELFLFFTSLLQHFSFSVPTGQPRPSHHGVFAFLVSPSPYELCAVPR
Examples 1 and 3 were evaluated as inhibitors of the five P450s that are the source of most DDI issues. […] The tested compounds meet drug property criteria for IV administration.

The nature of series [4]: Plasma protein binding (PPB, mouse). Format: in vitro ADME. To be noted: mouse, plasma; read-out: PPB mouse (% bound) (converted).
Source text: as §1

Setting [5] is: mouse, plasma, CD-1 mice, 1 mg/kg IV bolus.

With `CC(=O)C1C(=O)c2ccc(C(=O)c3ccc4c(c3)C(=O)C(C(C)=O)C4=O)cc2C1=O` (stereo not shown) [Example 1, 5,5′-carbonylbis(2-acetyl-1h-indene-1,3(2h)-dione)], on human PF4, the IC50 is 7 µM. The “tolerability” value with Heparin-PF4-KKO mice (mice, 5 mg/kg IV and IP doses) is “tolerated the 5 mg/kg IV and IP doses of the compound well”. Also, the “heparin-PF4-KKO induced thrombocytopenia in vivo” value with Heparin-PF4-KKO mice (mouse model of HIT (FIG. 4)) is “reduces heparin-PF4-KKO induced thrombocytopenia in vivo”. The “platelet counts at 4 hr, remaining mouse” value in the series with Heparin-PF4-KKO mice (one of the four mice) is listed as “only a little higher than DMSO controls”. In the series on Heparin-PF4-KKO mice (three of the four mice, 5 mg/kg retro-orbital at T0hr + 5 mg/kg IP at T4hr), the “platelet counts 4 hr after KKO administration” value was > 80 % of baseline. Further, the logD in series [1] turned out to be 0.53. The same compound returned a pKa in series [2] of 1.99. Moreover, the “time the concentration was sustained above 1 μM” value in series [3] (1 mg/kg, CD-1 mice (FIG. 5)) was “greater than 4 hours”. In addition, in series [3] (CD-1 mice, 1 mg/kg IV), the “clearance” value is “low clearance”; the “half-life” value was “long half-life”; the “volume of distribution” value was “low clearance and volume of distribution”. In series [3] (setting [5]), this compound yielded an AUC(0-inf) of 9350 ± 778 ng·h/mL and an AUC(0-t) of 9190 ± 704 ng·h/mL. In series [3] (mouse, plasma, CD-1 mice, 1 mg/kg IV bolus, average of 3 mice, read-out: t1/2 (converted)), the half-life is 4.59 ± 0.584 h. Further, the C0 in series [3] (mouse, plasma, CD-1 mice, 1 mg/kg IV bolus, concentration at t=0 min) is 15100 ± 2070 ng/mL. Besides, the clearance in series [3] (mouse, plasma, CD-1 mice, 1 mg/kg IV bolus, read-out: Clearance) was found to be 1.79 ± 0.147 mL/min/kg. Besides, the Vd in series [3] (mouse, plasma, CD-1 mice, 1 mg/kg IV bolus, read-out: Volume of distribution (Vdss)) was 0.448 ± 0.0121 L/kg. At P450 2D6, the IC50 is more than 100 µM and the “inhibition of P450 2D6” value was “no inhibition”.
Regarding `CCOC(=O)C1C(=O)c2ccc(C(=O)c3ccc4c(c3)C(=O)C(C(=O)OCC)C4=O)cc2C1=O` (stereo not shown) [Example 3, diethyl 5,5′-carbonylbis(1,3-dioxo-2,3-dihydro-1h-indene-2-carboxylate)], the inhibition at 100 µM at human PF4 (100 μM inhibitor, read-out: % inhibition of PF4 tetramer formation at single concentration of inhibitor) is 100%. In addition, the “inhibition of PF4 tetramerization” value against human PF4 (FIG. 6A) was “dose-dependent inhibition”. Also, the values for the IC50 on human PF4 and at P450 2D6 (read-out: P450 Inhibition IC50 2D6) were 2 µM and more than 100 µM, respectively. Moreover, the fraction unbound in series [4] was 0.043. The “inhibition of P450 2D6” value against P450 2D6 was “no inhibition”.

These data come from US20250281424A1 (New York Blood Center, Inc, priority 2020, published 2025).
